From PubChem BioAssay (NCI)
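Results reflect a 48-hour exposure of cells in 96-well plates to compound at five concentrations. The concentration for 50% growth inhibition is given as GI50. TGI marks complete inhibition of growth.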

How the values were obtained:
Test in all cases: DTP human tumour cell line panel, 48 h
[1] = system: 786-0 renal
[2] = system: BT-549 breast
[3] = system: COLO 205 colon
[4] = system: HCC-2998 colon
[5] = system: HOP-62 NSCLC
[6] = system: HOP-92 NSCLC
[7] = system: HS 578T breast
[8] = system: HT29 colon
[9] = system: K-562 leukemia
[10] = system: KM12 colon
[11] = system: M14 melanoma
[12] = system: NCI-H522 lung
[13] = system: RXF 393 renal
[14] = system: SF-268 CNS
[15] = system: SF-295 CNS
[16] = system: SF-539 CNS
[17] = system: SK-OV-3 ovarian
[18] = system: SNB-19 CNS
[19] = system: SNB-75 CNS
[20] = system: SR leukemia
[21] = system: T-47D breast
[22] = system: TK-10 renal
[23] = system: U251 CNS
[24] = system: A498 renal
[25] = system: A549 NSCLC
[26] = system: ACHN renal
[27] = system: CAKI-1 renal
[28] = system: CCRF-CEM leukemia
[29] = system: EKVX NSCLC
[30] = system: HCT-116 colon
[31] = system: HCT-15 colon
[32] = system: HL-60(TB) leukemia
[33] = system: IGROV1 ovarian
[34] = system: LOX IMVI melanoma
[35] = system: MALME-3M melanoma
[36] = system: MCF7 breast
[37] = system: MDA-MB-231 breast
[38] = system: MDA-MB-435
[39] = system: MOLT-4 leukemia
[40] = system: NCI-H226 lung
[41] = system: NCI-H23 lung
[42] = system: NCI-H460 lung
[43] = system: NCI/ADR-RES ovarian
[44] = system: OVCAR-3 ovarian
[45] = system: OVCAR-4 ovarian
[46] = system: OVCAR-5 ovarian
[47] = system: OVCAR-8 ovarian
[48] = system: PC-3 prostate
[49] = system: RPMI-8226 leukemia
[50] = system: SK-MEL-2 melanoma
[51] = system: SK-MEL-28 melanoma
[52] = system: SK-MEL-5 melanoma
[53] = system: SN12C renal
[54] = system: SW-620 colon
[55] = system: UACC-257 melanoma
[56] = system: UACC-62 melanoma
[57] = system: UO-31 renal
[58] = system: DU-145 prostate

Cc1c(C(=O)Nc2ccc(Oc3ccnc4cc(OCC(C)(C)O)ccc34)c(F)c2)c(=O)n(-c2ccccc2)n1C
GI50 [1]: 5.2 µM | TGI [1]: > 100 µM | GI50 [2]: 4.53 µM | TGI [2]: > 100 µM | GI50 [3]: 2.81 µM | TGI [3]: > 100 µM | GI50 [4]: > 100 µM | TGI [4]: > 100 µM | GI50 [5]: 19.4 µM | TGI [5]: > 100 µM | GI50 [6]: 1.88 µM | TGI [6]: 22.2 µM | GI50 [7]: 3.04 µM | TGI [7]: > 100 µM | GI50 [8]: 2.29 µM | TGI [8]: > 100 µM | GI50 [9]: 0.393 µM | TGI [9]: 15.3 µM | GI50 [10]: 0.226 µM | TGI [10]: > 100 µM | GI50 [11]: 2.47 µM | TGI [11]: > 100 µM | GI50 [12]: 8.43 µM | TGI [12]: > 100 µM | GI50 [13]: 2.72 µM | TGI [13]: > 100 µM | GI50 [14]: 6.37 µM | TGI [14]: > 100 µM | GI50 [15]: 0.782 µM | TGI [15]: > 100 µM | GI50 [16]: 1.46 µM | TGI [16]: > 100 µM | GI50 [17]: 6.46 µM | TGI [17]: > 100 µM | GI50 [18]: 7.23 µM | TGI [18]: > 100 µM | GI50 [19]: 2.93 µM | TGI [19]: > 100 µM | GI50 [20]: 3.66 µM | TGI [20]: > 100 µM | GI50 [21]: 2.79 µM | TGI [21]: > 100 µM | GI50 [22]: 9.9 µM | TGI [22]: > 100 µM | GI50 [23]: 8.86 µM | TGI [23]: > 100 µM

CC(=O)O[C@H]1[C@@H](N2CCCCC2)C[C@H]2[C@@H]3CC=C4C[C@@H](N5CCCC5)CC[C@]4(C)[C@H]3CC[C@@]21C
TGI [1]: > 100 µM | TGI [24]: > 100 µM | TGI [25]: > 100 µM | TGI [26]: > 100 µM | TGI [2]: > 100 µM | TGI [27]: > 100 µM | TGI [28]: > 100 µM | TGI [3]: > 100 µM | TGI [29]: > 100 µM | TGI [4]: 34.4 µM | TGI [30]: > 100 µM | TGI [31]: > 100 µM | TGI [32]: > 100 µM | TGI [5]: > 100 µM | TGI [6]: > 100 µM | TGI [7]: > 100 µM | TGI [8]: > 100 µM | TGI [33]: > 100 µM | TGI [9]: 22.5 µM | TGI [10]: > 100 µM | TGI [34]: > 100 µM | TGI [11]: 36.4 µM | TGI [35]: 52.4 µM | TGI [36]: > 100 µM | TGI [37]: > 100 µM | TGI [38]: > 100 µM | TGI [39]: > 100 µM | TGI [40]: > 100 µM | TGI [41]: > 100 µM | TGI [42]: > 100 µM | TGI [12]: > 100 µM | TGI [43]: > 100 µM | TGI [44]: > 100 µM | TGI [45]: > 100 µM | TGI [46]: > 100 µM | TGI [47]: > 100 µM | TGI [48]: > 100 µM | TGI [49]: 92.9 µM | TGI [13]: > 100 µM | TGI [14]: > 100 µM | TGI [15]: > 100 µM | TGI [16]: 34.5 µM | TGI [50]: > 100 µM | TGI [51]: 48.9 µM | TGI [52]: > 100 µM | TGI [17]: > 100 µM | TGI [53]: > 100 µM | TGI [18]: > 100 µM | TGI [19]: > 100 µM | TGI [20]: 8.96 µM | TGI [54]: > 100 µM | TGI [21]: > 100 µM | TGI [22]: > 100 µM | TGI [23]: > 100 µM | TGI [55]: 87.7 µM | TGI [56]: > 100 µM | TGI [57]: > 100 µM

CCCCCCCCCCCCNCCCc1ccccc1
GI50 [1]: 1.8 µM | TGI [1]: 3.33 µM | GI50 [24]: 2.3 µM | TGI [24]: 6.69 µM | GI50 [25]: 1.78 µM | TGI [25]: 3.35 µM | GI50 [26]: 1.8 µM | TGI [26]: 3.5 µM | GI50 [2]: 1.75 µM | TGI [2]: 3.19 µM | GI50 [27]: 1.79 µM | TGI [27]: 3.44 µM | GI50 [28]: 2.15 µM | TGI [28]: 5.32 µM | GI50 [3]: 1.87 µM | TGI [3]: 3.43 µM | GI50 [58]: 1.92 µM | TGI [58]: 3.51 µM | GI50 [4]: 1.75 µM | TGI [4]: 3.23 µM | GI50 [30]: 1.78 µM | TGI [30]: 3.17 µM | GI50 [31]: 1.71 µM | TGI [31]: 3.33 µM | GI50 [32]: 1.89 µM | TGI [32]: 3.73 µM | GI50 [5]: 2.07 µM | TGI [5]: 3.7 µM | GI50 [6]: 1.34 µM | TGI [6]: 2.83 µM | GI50 [7]: 1.66 µM | TGI [7]: 3.72 µM | GI50 [8]: 1.75 µM | TGI [8]: 3.21 µM | GI50 [33]: 1.93 µM | TGI [33]: 3.49 µM | GI50 [9]: 1.89 µM | TGI [9]: 4.54 µM | GI50 [10]: 1.75 µM | TGI [10]: 3.13 µM | GI50 [34]: 1.77 µM | TGI [34]: 3.24 µM | GI50 [11]: 1.76 µM | TGI [11]: 3.25 µM | GI50 [35]: 1.97 µM | TGI [35]: 3.64 µM | GI50 [36]: 1.81 µM | TGI [36]: 3.35 µM | GI50 [37]: 1.61 µM | TGI [37]: 3.12 µM | GI50 [38]: 1.73 µM | TGI [38]: 3.17 µM | GI50 [39]: 2.04 µM | TGI [39]: 4.5 µM | GI50 [40]: 1.87 µM | TGI [40]: 3.61 µM | GI50 [41]: 1.9 µM | TGI [41]: 3.65 µM | GI50 [42]: 1.83 µM | TGI [42]: 3.4 µM | GI50 [12]: 1.62 µM | TGI [12]: 3.03 µM | GI50 [43]: 1.77 µM | TGI [43]: 3.5 µM | GI50 [44]: 1.79 µM | TGI [44]: 3.18 µM | GI50 [45]: 1.57 µM | TGI [45]: 2.98 µM | GI50 [46]: 1.68 µM | TGI [46]: 3.48 µM | GI50 [47]: 1.75 µM | TGI [47]: 3.39 µM | GI50 [49]: 2.09 µM | TGI [49]: 4.41 µM | GI50 [13]: 1.63 µM | TGI [13]: 3.1 µM | GI50 [14]: 1.87 µM | TGI [14]: 3.85 µM | GI50 [15]: 1.93 µM | TGI [15]: 3.62 µM | GI50 [16]: 1.89 µM | TGI [16]: 3.32 µM | GI50 [51]: 1.72 µM | TGI [51]: 3.23 µM | GI50 [52]: 1.73 µM | TGI [52]: 3.11 µM | GI50 [17]: 2.37 µM | TGI [17]: 5.37 µM | GI50 [53]: 1.63 µM | TGI [53]: 3.27 µM | GI50 [18]: 2.07 µM | TGI [18]: 5.35 µM | GI50 [19]: 1.43 µM | TGI [19]: 2.89 µM | GI50 [20]: 1.2 µM | TGI [20]: 3.56 µM | GI50 [54]: 1.64 µM | TGI [54]: 3.28 µM | GI50 [21]: 1.78 µM | TGI [21]: 3.37 µM | GI50 [22]: 1.63 µM | TGI [22]: 2.98 µM | GI50 [23]: 1.53 µM | TGI [23]: 2.86 µM | GI50 [55]: 1.74 µM | TGI [55]: 3.18 µM | GI50 [56]: 1.76 µM | TGI [56]: 3.29 µM | GI50 [57]: 1.86 µM | TGI [57]: 4.35 µM
